Laboratory results: patent publication US5652353A, “DNAs encoding tumor necrosis factor-α muteins” (priority 1990, dated 1997)
Each block holds one substance with its values, some of them ahead of it.

Tests used:
mouse L929 cells = assay: Standard L929 cytotoxicity assay; type: cell-based; conditions: relative to TNF-α
Protocol: (§1) The amount of protein was determined by the Biorad (Richmond, Calif., USA) protein dye reagent according to the instructions of the manufacturer. The purity of the TNF muteins was determined by SDS-PAGE. The cytotoxic activity on mouse L929 cells was determined using the standard L929 assay (Ruff and Gifford in "Lymphokines", ed. by E. Pick, Vol. 2, 235-275, Academic Press, 1981, Orlando, USA). The cytotoxicity assay on Hep-2 cells was performed the same way as the L929 assay with the only exception that cycloheximide (50 μg/ml) was added instead of actinomycin D.

Hep-2 cells = type: cell-based, human; conditions: in words; accuracy of assay a factor of 3
Protocol: as §1

[1] = test system: U937 cells (predominantly but not exclusively p75-TNF-R); assay: Competition analysis: displacement of 125I-TNF-α by unlabeled mutant TNF on U937 cells; type: binding, human; conditions: for reduction of binding affinity for p75-TNF-R: relative to its binding affinity to p55-TNF-R
Protocol: (§2) Hep-2 [ATCC No. CCL 23], U937 [ATCC No. CRL 1593] and RAJI [ATCC No. CCL 86] cells were grown in RPMI 1640 medium, supplemented with 10% (v/v) inactivated .fetal calf serum, L-glutamine (2 mM), sodium pyruvate (1 mM), 2-mercaptoethanol (5×10^-5 M), 1% of a 100× mixture of non-essential amino acids [Gibro Laboratories, Paisley, GB] and gentamycine ([…]). The non-adherent cells (U937 and RAJI) were harvested after reaching a density of 1×10^6 cells/ml. For binding experiments, the adherent Hep-2 cells were grown to confluency, trypsinized, collected and seeded in large. Petri dishes (150 cm^2) at a density of 2.5×10^6 cells/ml. Subsequently, the dishes were placed in a CO2 -incubator overnight. Because Hep-2 cells are not strongly adherent, the cells could be harvested the same way as the non-adherent cells. Dulbecco's medium, supplemented with 10% inactivated newborn calf serum was used for L929 cell growth. […] A ten well dilution series of unlabeled mutant TNF ([…] to 0.004 μM) in concentration steps in multiples of 2 was set up in a microtiterplate. […] After addition of 2×10^6 cells, the total volume was 0.2 ml/well. The medium of incubation, reaction conditions and isolation of the cells were exactly the same as described above for the Scatchard analysis experiments. […] The following experimental data were used for such calculations: From each experiment shown in these tables, the KD value was calculated using the programm of Mc. Pherson et al. (1985).

human p75-TNF-R = assay: Filter binding competition of 125I-TNFα on purified p75-TNF-R from HL60 cells; conditions: for IC50: competition with 125I-TNFα; for Decrease in Affinity: with respect to TNFα
Protocol: (§3) The filters were blocked with blocking buffer (50 mM Tris, 140 mM NaCl, 5 mM EDTA, 0.02% NaN3, 1% defatted milk powder) for 1.5 hours at room temperature. […] The filters were washed with blocking buffer (2× for 5 min.) and with H2 O (1× for 5 min.), air dried, and counted in a γ-counter.

human p55-TNF-R = assay: Filter binding competition of 125I-TNFα on purified p55-TNF-R from HL60 cells; conditions: with respect to TNFα
Protocol: as §3

[2] = test system: Hep-2 cells (only carry p55-TNF-R); assay: Competition analysis: displacement of 125I-TNF-α by unlabeled mutant TNF on Hep-2 cells; type: binding, human; conditions: for Mean dpm: Table C
Protocol: as §2

IC50 (human p75-TNF-R): 5 µg/mL
Substance: Trp^32 -TNFα: TNF-α mutein with tryptophan substituted at position 32, SEQ ID No: 9
decrease of biological activity on L929 cells (factor) (mouse L929 cells): more than 100
biological activity (specific activity) on Hep-2 cells (Hep-2 cells): largely retained
binding affinity for p75-TNF-R as share of its binding affinity to p55-TNF-R [1]: about 3%
Mean dpm ([1]; Table B, experiment 1, U937 cells, concentration of mutant 1 × 10^-6): 777 dpm
Mean dpm ([1]; Table B, experiment 1, U937 cells, concentration of mutant 1 × 10^-9): 1917 dpm
Mean dpm ([1]; Table B, experiment 1, U937 cells, concentration of mutant 1.25 × 10^-7): 1166 dpm
Mean dpm ([1]; Table B, experiment 1, U937 cells, concentration of mutant 1.5 × 10^-8): 1488 dpm
Mean dpm ([1]; Table B, experiment 1, U937 cells, concentration of mutant 2 × 10^-6): 628 dpm
Mean dpm ([1]; Table B, experiment 1, U937 cells, concentration of mutant 2 × 10^-9): 1698 dpm
Mean dpm ([1]; Table B, experiment 1, U937 cells, concentration of mutant 3 × 10^-8): 1377 dpm
Mean dpm ([1]; Table B, experiment 1, U937 cells, concentration of mutant 4 × 10^-9): 1655 dpm
Mean dpm ([1]; Table B, experiment 1, U937 cells, concentration of mutant 5 × 10^-7): 953 dpm
Mean dpm ([1]; Table B, experiment 1, U937 cells, concentration of mutant 6 × 10^-8): 1333 dpm
Mean dpm ([1]; Table B, experiment 1, U937 cells, concentration of mutant 8 × 10^-9): 1585 dpm
Mean dpm ([1]; Table B, experiment 1, U937 cells, concentration of mutant […] 10^-7): 1026 dpm
Mean dpm ([1]; Table B, experiment 2, U937 cells, concentration of mutant 1.10^-6): 357 dpm
Mean dpm ([1]; Table B, experiment 2, U937 cells, concentration of mutant 1.2 × 10^-7): 508 dpm
Mean dpm ([1]; Table B, experiment 2, U937 cells, concentration of mutant 1.5 × 10^-8): 636 dpm
Mean dpm ([1]; Table B, experiment 2, U937 cells, concentration of mutant 2 × 10^-6): 294 dpm
Mean dpm ([1]; Table B, experiment 2, U937 cells, concentration of mutant 3 × 10^-8): 585 dpm
Mean dpm ([1]; Table B, experiment 2, U937 cells, concentration of mutant 4 × 10^9): 653 dpm
Mean dpm ([1]; Table B, experiment 2, U937 cells, concentration of mutant 5 × 10^-7): 422 dpm
Mean dpm ([1]; Table B, experiment 2, U937 cells, concentration of mutant 6 × 10^-8): 546 dpm
Mean dpm ([1]; Table B, experiment 2, U937 cells, concentration of mutant 8 × 10^-9): 629 dpm
Mean dpm ([1]; Table B, experiment 2, U937 cells, concentration of mutant […] 10^-7): 479 dpm
Mean dpm ([1]; Table B, experiment 3 (125I-TNF batch 2), U937 cells, concentration of mutant 1 × 10^-6): 1192 dpm
Mean dpm ([1]; Table B, experiment 3 (125I-TNF batch 2), U937 cells, concentration of mutant 1.25 × 10^-7): 2387 dpm
Mean dpm ([1]; Table B, experiment 3 (125I-TNF batch 2), U937 cells, concentration of mutant 1.5 × 10^-8): 3620 dpm
Mean dpm ([1]; Table B, experiment 3 (125I-TNF batch 2), U937 cells, concentration of mutant 2 × 10^-6): 814 dpm
Mean dpm ([1]; Table B, experiment 3 (125I-TNF batch 2), U937 cells, concentration of mutant 3 × 10^-8): 3275 dpm
Mean dpm ([1]; Table B, experiment 3 (125I-TNF batch 2), U937 cells, concentration of mutant 4 × 10^-9): 4759 dpm
Mean dpm ([1]; Table B, experiment 3 (125I-TNF batch 2), U937 cells, concentration of mutant 5 × 10^-7): 1472 dpm
Mean dpm ([1]; Table B, experiment 3 (125I-TNF batch 2), U937 cells, concentration of mutant 6 × 10^-8): 3034 dpm
Mean dpm ([1]; Table B, experiment 3 (125I-TNF batch 2), U937 cells, concentration of mutant 8 × 10^-9): 4041 dpm
Mean dpm ([1]; Table B, experiment 3 (125I-TNF batch 2), U937 cells, concentration of mutant […] 10^-7): 1981 dpm
reduction of binding affinity for p75-TNF-R [1]: approximately 33 fold
Decrease in Affinity (human p75-TNF-R): 500 fold
Decrease in Affinity (human p55-TNF-R): 1.5 fold

IC50 (human p75-TNF-R): 2.5 µg/mL
Substance: Ser^29 -TNFα: TNF-α mutein with serine substituted at position 29, SEQ ID No: 4
decrease of biological activity on L929 cells (factor) (mouse L929 cells): more than 100
biological activity (specific activity) on Hep-2 cells (Hep-2 cells): largely retained
Mean dpm ([2]; experiment 1, Hep-2 cells, concentration of mutant 1 × 10^-6): 359 dpm
Mean dpm ([2]; experiment 1, Hep-2 cells, concentration of mutant 1 × 10^-9): 799 dpm
Mean dpm ([2]; experiment 1, Hep-2 cells, concentration of mutant 1.25 × 10^-7): 379 dpm
Mean dpm ([2]; experiment 1, Hep-2 cells, concentration of mutant 2 × 10^-6): 383 dpm
Mean dpm ([2]; experiment 1, Hep-2 cells, concentration of mutant 2 × 10^-9): 677 dpm
Mean dpm ([2]; experiment 1, Hep-2 cells, concentration of mutant 3.2 × 10^-8): 442 dpm
Mean dpm ([2]; experiment 1, Hep-2 cells, concentration of mutant 4 × 10^-9): 564 dpm
Mean dpm ([2]; experiment 1, Hep-2 cells, concentration of mutant 5 × 10^-7): 437 dpm
Mean dpm ([2]; experiment 1, Hep-2 cells, concentration of mutant 6.4 × 10^-8): 446 dpm
Mean dpm ([2]; experiment 1, Hep-2 cells, concentration of mutant 8 × 10^-9): 510 dpm
Mean dpm ([2]; experiment 1, Hep-2 cells, concentration of mutant […] 10^-7): 374 dpm
Mean dpm ([2]; experiment 1, Hep-2 cells, concentration of mutant […] 10^-8): 451 dpm
Mean dpm ([2]; experiment 2, Hep-2 cells, concentration of mutant 1 × 10^-6): 193 dpm
Mean dpm ([2]; experiment 2, Hep-2 cells, concentration of mutant 1.2 × 10^-7): 239 dpm
Mean dpm ([2]; experiment 2, Hep-2 cells, concentration of mutant 1.5 × 10^-8): 253 dpm
Mean dpm ([2]; experiment 2, Hep-2 cells, concentration of mutant 2 × 10^-6): 238 dpm
Mean dpm ([2]; experiment 2, Hep-2 cells, concentration of mutant 3 × 10^-8): 235 dpm
Mean dpm ([2]; experiment 2, Hep-2 cells, concentration of mutant 4 × 10^-9): 273 dpm
Mean dpm ([2]; experiment 2, Hep-2 cells, concentration of mutant 5 × 10^-7): 211 dpm
Mean dpm ([2]; experiment 2, Hep-2 cells, concentration of mutant 6 × 10^-8): 207 dpm
Mean dpm ([2]; experiment 2, Hep-2 cells, concentration of mutant 8 × 10^-9): 240 dpm
binding constant (KD) with Hep-2 cells compared with TNF-α ([2]; in words): almost the same as TNF-α
binding affinity for p75-TNF-R as share of its binding affinity to p55-TNF-R [1]: about 2%
Mean dpm ([1]; Table A, experiment 1, U937 cells, concentration of mutant 1 × 10^-6 [mol]): 632 dpm
Mean dpm ([1]; Table A, experiment 1, U937 cells, concentration of mutant 1 × 10^-9 [mol]): 1869 dpm
Mean dpm ([1]; Table A, experiment 1, U937 cells, concentration of mutant 1.25 × 10^-7 [mol]): 1200 dpm
Mean dpm ([1]; Table A, experiment 1, U937 cells, concentration of mutant 2 × 10^-6 [mol]): 533 dpm
Mean dpm ([1]; Table A, experiment 1, U937 cells, concentration of mutant 2 × 10^-9 [mol]): 1779 dpm
Mean dpm ([1]; Table A, experiment 1, U937 cells, concentration of mutant 3.2 × 10^-8 [mol]): 1415 dpm
Mean dpm ([1]; Table A, experiment 1, U937 cells, concentration of mutant 4 × 10^-9 [mol]): 1719 dpm
Mean dpm ([1]; Table A, experiment 1, U937 cells, concentration of mutant 5 × 10^-7 [mol]): 949 dpm
Mean dpm ([1]; Table A, experiment 1, U937 cells, concentration of mutant 6.4 × 10^-8 [mol]): 1320 dpm
Mean dpm ([1]; Table A, experiment 1, U937 cells, concentration of mutant 8 × 10^-9 [mol]): 1708 dpm
Mean dpm ([1]; Table A, experiment 1, U937 cells, concentration of mutant […] 10^-7 [mol]): 983 dpm
Mean dpm ([1]; Table A, experiment 1, U937 cells, concentration of mutant […] 10^-8 [mol]): 1575 dpm
Mean dpm ([1]; Table A, experiment 2, U937 cells, concentration of mutant 1 × 10^-6 [mol]): 263 dpm
Mean dpm ([1]; Table A, experiment 2, U937 cells, concentration of mutant 1.2 × 10^-7 [mol]): 413 dpm
Mean dpm ([1]; Table A, experiment 2, U937 cells, concentration of mutant 1.5 × 10^-8 [mol]): 541 dpm
Mean dpm ([1]; Table A, experiment 2, U937 cells, concentration of mutant 2 × 10^-6 [mol]): 238 dpm
Mean dpm ([1]; Table A, experiment 2, U937 cells, concentration of mutant 3 × 10^-8 [mol]): 572 dpm
Mean dpm ([1]; Table A, experiment 2, U937 cells, concentration of mutant 4 × 10^-9 [mol]): 635 dpm
Mean dpm ([1]; Table A, experiment 2, U937 cells, concentration of mutant 5 × 10^-7 [mol]): 319 dpm
Mean dpm ([1]; Table A, experiment 2, U937 cells, concentration of mutant 6 × 10^-8 [mol]): 489 dpm
Mean dpm ([1]; Table A, experiment 2, U937 cells, concentration of mutant 8 × 10^-9 [mol]): 603 dpm
Mean dpm ([1]; Table A, experiment 2, U937 cells, concentration of mutant […] 10^-7 [mol]): 380 dpm
reduction of binding affinity for p75-TNF-R [1]: approximately 50 fold
Decrease in Affinity (human p75-TNF-R): 250 fold
Decrease in Affinity (human p55-TNF-R): 8.2 fold
